Results published in patent US20060046968A1, “Prodrug substituted benzoxazoles as estrogenic agents” (priority 2004, published 2006).
Marks after values point to notes of the source that are not given here.

Tests used:
Format in all cases: in vivo
[1] = system: Male HLA-B27 rats; assay: HLA rat test for inflammatory bowel disease: stool character (3 = diarrhea; 2 = soft stool; 1 = normal stool); conditions: Study C, oral 20 mg/kg once per day (10 mg/kg earlier)
[2] = system: Male HLA-B27 rats; assay: HLA-B27 rat test for inflammatory bowel disease: histological scoring of colon; conditions: for Fibrosis (0-2) / Inflammation (0-3) / Lesion depth (0-2) / Total score / Ulceration (0-2): colon histology
Protocol: Representative metabolites of compounds of the invention were evaluated in the HLA rat standard pharmacological test procedure, which emulates inflammatory bowel disease in humans. The following briefly describes the procedure used and results obtained. […] Louis) and water. Stool quality was observed daily and graded according to the following scale: Diarrhea=3; soft stool=2; normal stool=1. At the end of the study, serum was collected and stored at −70° C. A section of colon was prepared for histological analysis and an additional segment was analyzed for myeloperoxidase activity. In Study A, rats (22-26 weeks old) were dosed subcutaneously once per day for seven days with one of the regimens listed below. […] Histological analysis. Colonic tissue was immersed in 10% neutral buffered formalin. Each specimen of colon was separated into four samples for evaluation. The formalin-fixed tissues were processed in a Tissue-Tek® vaccum infiltration processor (Miles, Inc; West Haven, Conn.) for paraffin embedding. The samples were sectioned at 5 μm and then stained with hematoxylin and eosin (H&E) for blinded histological evaluations using a scale modified after Boughton-Smith. After the scores were completed, the samples were unblinded, and data were tabulated and analyzed by ANOVA linear modeling with multiple mean comparisons. Sections of colonic tissue were evaluated for several disease indicators and given relative scores.

[3] = system: Male HLA-B27 rats; assay: HLA-B27 rat model of arthritis: joint scores; conditions: Study 1, oral 20 mg/kg once per day (10 mg/kg earlier)
[4] = system: Male HLA-B27 rats; assay: HLA-B27 rat model of arthritis: joint histology; conditions: Study 1; oral 46 days; 10 mg/kg days 1-24, then 20 mg/kg
Protocol: At the end of the study, the rats are euthanized with CO2, hindlimbs removed at necropsy and fixed in 10% buffered formalin, and the tarsal joints decalcified and embedded in paraffin. Histologic sections are stained with Hematoxylin and Eosin or […] Green stain. Slides are coded so that the examiner is blinded to the treatment groups. Synovial tissue from tarsal joints is evaluated based on synovial hyperplasia, inflammatory cell infiltration, and pannus formation [Poole and Coombs, International Archives of Allergy & Applied Immunology 54: 97-113 (1977)], as outlined below. [table] […] [table] Representative metabolites of compounds of the invention were evaluated in the HLA-B27 rat standard pharmacological test procedure, which emulates arthritis in humans. The following briefly describes the procedure used and results obtained. Male HLA-B27 rats were obtained from Taconic and provided unrestricted access to a food (PMI® LabDiet 5001) and water. Joint scores and histology were evaluated as described above for the Lewis rat model of adjuvant-induced arthritis. Study 1: […]

[5] = Study C, oral 7 weeks, 10 mg/kg days 1-24, then 20 mg/kg

Structure (SMILES): C=Cc1cc(O)cc2nc(-c3ccc(O)c(F)c3)oc12 [Example 24, 2-(3-FLUORO-4-HYDROXYPH ENYL)-7-VI NYL-1,3-BENZOXAZOL-5-OL]
- Stool Character (group's average score) ([1]; Day 39): 1.75
- Stool Character (group's average score) ([1]; Day 40): 1.5
- Stool Character (group's average score) ([1]; Day 41): 1.75
- Stool Character (group's average score) ([1]; Day 42): 1.5
- Stool Character (group's average score) ([1]; Day 43): 1.5
- Stool Character (group's average score) ([1]; Day 44): 1.5
- Stool Character (group's average score) ([1]; Day 45): 1.25
- Stool Character (group's average score) ([1]; Day 46): 1.25
- Total disease score versus vehicle ([2]; Study C, oral): significantly reduced total disease score
- Fibrosis (0-2), mean ± SD [2, 5]: 0*
- Inflammation (0-3), mean ± SD [2, 5]: 0.69 ± 0.24
- Lesion depth (0-2), mean ± SD [2, 5]: 0*
- Total score, mean ± SD [2, 5]: 0.69 ± 0.24
- Ulceration (0-2), mean ± SD [2, 5]: 0*
- Fibrosis (0-2) ([2]; 1 mg/kg s.c., second study): 0.75
- Inflammation (0-3) ([2]; 1 mg/kg s.c., second study): 1.63*
- Lesion depth (0-2) ([2]; 1 mg/kg s.c., second study): 0.88*
- Total score ([2]; 1 mg/kg s.c., second study): 4.4*
- Ulceration (0-2) ([2]; 1 mg/kg s.c., second study): 1.25
- Fibrosis (0-2) ([2]; 10 mg/kg s.c., second study): 0.50*
- Inflammation (0-3) ([2]; 10 mg/kg s.c., second study): 1.63*
- Lesion depth (0-2) ([2]; 10 mg/kg s.c., second study): 0.69*
- Total score ([2]; 10 mg/kg s.c., second study): 3.6*
- Ulceration (0-2) ([2]; 10 mg/kg s.c., second study): 0.81*
- Fibrosis (0-2) ([2]; 50 mg/kg s.c.): 0*
- Inflammation (0-3) ([2]; 50 mg/kg s.c.): 1.05*#
- Lesion depth (0-2) ([2]; 50 mg/kg s.c.): 0.2#
- Total score ([2]; 50 mg/kg s.c.): 1.5*#
- Ulceration (0-2) ([2]; 50 mg/kg s.c.): 0.25*#
- Measurements of tissue injury, colon histology ([2]; composite of two subcutaneous dosing studies): effective in reducing several measurements of tissue injury
- Joint inflammation score ([3]; Day 29): 1.5
- Joint inflammation score ([3]; Day 30): 0.5
- Joint inflammation score ([3]; Day 31): 0.5
- Joint inflammation score ([3]; Day 32): 1.25
- Joint inflammation score ([3]; Day 33): 2
- Joint inflammation score ([3]; Day 34): 2.25
- Joint inflammation score ([3]; Day 35): 2
- Joint inflammation score ([3]; Day 36): 2.25
- Joint inflammation score ([3]; Day 37): 2
- Joint inflammation score ([3]; Day 38): 2.75
- Joint inflammation score ([3]; Day 39): 2.25
- Joint inflammation score ([3]; Day 40): 1.75
- Joint inflammation score ([3]; Day 41): 2
- Joint inflammation score ([3]; Day 42): 2.5
- Joint inflammation score ([3]; Day 43): 4.75
- Joint inflammation score ([3]; Day 44): 3
- Joint inflammation score ([3]; Day 45): 2.75
- Joint inflammation score ([3]; Day 46): 3.25
- Mankin score (mean ± SD) [4]: 3.5 ± 1.8
- Synovitis score (mean ± SD) [4]: 3.17 ± 0.3
